The record followed here is ChEMBL document CHEMBL1153188, “Quinoline-3-carboxamide containing sulfones as liver X receptor (LXR) agonists with binding selectivity for LXRbeta and low blood-brain penetration” (Bioorg Med Chem Lett, 2010).

The subject of data set [1] is THP-1. As to the kind of experiment: Stimulation of [3H]cholesterol efflux in human THP1 foam cells loaded with ac-LDL relative to TO901317. In kind it is functional, cell-based.
For data set [2], the target named is T1, Oxysterols receptor LXR-beta (Homo sapiens, UniProt P55055). As to the kind of experiment: Displacement of [3H]TO901317 from human recombinant LXRbeta expressed in Escherichia coli by flashplate method.
T1 sequence (P55055 whole entry): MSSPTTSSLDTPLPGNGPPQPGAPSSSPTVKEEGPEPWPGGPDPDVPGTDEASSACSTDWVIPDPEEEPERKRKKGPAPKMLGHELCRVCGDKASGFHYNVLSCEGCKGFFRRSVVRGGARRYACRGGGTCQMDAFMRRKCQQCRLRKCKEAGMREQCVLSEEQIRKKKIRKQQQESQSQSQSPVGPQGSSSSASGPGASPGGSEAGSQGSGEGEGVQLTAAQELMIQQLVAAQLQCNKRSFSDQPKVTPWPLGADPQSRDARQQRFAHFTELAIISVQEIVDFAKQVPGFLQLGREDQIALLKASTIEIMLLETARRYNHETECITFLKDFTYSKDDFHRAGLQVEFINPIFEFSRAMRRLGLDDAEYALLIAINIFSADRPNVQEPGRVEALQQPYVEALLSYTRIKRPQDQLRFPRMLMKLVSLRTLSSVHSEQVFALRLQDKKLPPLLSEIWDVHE
The target in data set [3] is T2, Oxysterols receptor LXR-alpha (Homo sapiens, UniProt Q13133).
T2 sequence (Q13133 whole entry): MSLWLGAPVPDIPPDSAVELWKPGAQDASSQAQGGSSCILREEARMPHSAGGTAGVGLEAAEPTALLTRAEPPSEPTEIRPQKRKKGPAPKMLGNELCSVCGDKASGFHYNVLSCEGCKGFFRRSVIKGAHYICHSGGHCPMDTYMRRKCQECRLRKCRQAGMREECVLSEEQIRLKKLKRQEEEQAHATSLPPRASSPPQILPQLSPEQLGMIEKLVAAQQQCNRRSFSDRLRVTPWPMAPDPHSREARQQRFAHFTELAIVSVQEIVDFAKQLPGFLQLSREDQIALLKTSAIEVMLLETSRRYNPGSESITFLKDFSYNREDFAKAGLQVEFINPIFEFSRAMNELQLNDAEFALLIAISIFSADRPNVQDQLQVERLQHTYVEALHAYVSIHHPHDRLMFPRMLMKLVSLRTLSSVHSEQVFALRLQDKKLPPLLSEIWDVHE
As to the kind of experiment: Displacement of [3H]TO901317 from human recombinant LXRalpha expressed in Escherichia coli by flashplate method. (In general: In a radioligand displacement assay an active substance lowers the binding of a labelled ligand.)

Data set [4] relates to THP-1. As to the kind of experiment: Effect on ABCA1 gene expression in human differentiated THP1 cells. In kind it is functional, cell-based.
The subject of data set [5] is THP-1. As to the kind of experiment: Effect on ABCA1 gene expression in human differentiated THP1 cells relative to TO901317. In kind it is functional.
The subject of data set [6] is HepG2. As to the kind of experiment: Effect on triglyceride accumulation in human HepG2 cells. Type of data set: functional, cell-based.
The test system of data set [7] is HepG2. As to the kind of experiment: Effect on triglyceride accumulation in human HepG2 cells relative to TO901317. Type of data set: functional.
In data set [8] the target is T1, Oxysterols receptor LXR-beta.
Data set [9] has as its target T2, Oxysterols receptor LXR-alpha.
Data set [10] deals with Plasma. As to the kind of experiment: AUC (0 to infinity) in Long Evans rat brain at 10 mg/kg, po. The arrangement: time infinity, dose 10 mg/kg, route oral. In kind it is ADME, organism-based. The note with it: in vivo.
Data set [11] can be described thus: Ratio of AUC (0 to infinity) in brain to AUC (0 to infinity) in plasma in Long Evans rat at 10 mg/kg, po. Conditions: brain and plasma. The arrangement: dose 10 mg/kg, route oral. Type of data set: ADME, organism-based.
In data set [12] the test system is THP-1. As to the kind of experiment: Stimulation of [3H]cholesterol efflux in human THP1 foam cells loaded with ac-LDL. In kind it is functional, cell-based.
Data set [13] is described as follows: Cmax in Long Evans rat plasma at 10 mg/kg, po. The arrangement: dose 10 mg/kg, route oral. In kind it is ADME, organism-based.
For data set [14], the system named is Plasma. As to the kind of experiment: AUC (0 to infinity) in Long Evans rat plasma at 10 mg/kg, po. The arrangement: time infinity, dose 10 mg/kg, route oral. In kind it is ADME, organism-based. The note with it: in vivo.
Data set [15] can be described thus: Cmax in Long Evans rat brain at 10 mg/kg, po. In kind it is ADME, organism-based. On the set-up: dose 10 mg/kg, route oral.
The nature of data set [16]: Ratio of AUC (0 to infinity) in brain to AUC (0 to infinity) in plasma in Long Evans rat at 30 mg/kg, po. In kind it is ADME, organism-based. The arrangement: dose 30 mg/kg, route oral. Conditions: brain and plasma.
Data set [17] can be described thus: Cmax in Long Evans rat plasma at 30 mg/kg, po. The arrangement: dose 30 mg/kg, route oral. Type of data set: ADME, organism-based.
Data set [18] relates to Plasma. As to the kind of experiment: AUC (0 to infinity) in Long Evans rat plasma at 30 mg/kg, po. Type of data set: ADME, organism-based. On the set-up: time infinity, dose 30 mg/kg, route oral. The note with it: in vivo.
The nature of data set [19]: Cmax in Long Evans rat brain at 30 mg/kg, po. On the set-up: dose 30 mg/kg, route oral. Type of data set: ADME, organism-based.
Data set [20] concerns Plasma. As to the kind of experiment: AUC (0 to infinity) in Long Evans rat brain at 30 mg/kg, po. Type of data set: ADME, organism-based. The arrangement: time infinity, dose 30 mg/kg, route oral. Conditions: in vivo.

Molecule `O=C(O)Cc1ccc(COc2cccc(-c3c(Cc4ccccc4)cnc4c(C(F)(F)F)cccc34)c2)cc1` returned an Activity in the data set on THP-1 [1] of 88%.
By IC50 is commonly meant the midpoint of a concentration-inhibition curve. For `CCS(=O)(=O)c1cccc(Oc2cccc(-c3c(C(N)=O)cnc4c(C(F)(F)F)cccc34)c2)c1`, the IC50 is 11 nM in data set [2] and 453 nM in [3].
Consider `CCOC(=O)c1cnc2c(C(F)(F)F)cccc2c1-c1cccc(Oc2cccc(S(C)(=O)=O)c2)c1`, for which the IC50 turned out to be 2 nM in data set [2] and 6.6 nM in [3].
The matching figures for `CS(=O)(=O)c1cccc(Oc2cccc(-c3c(C(=O)O)cnc4c(C(F)(F)F)cccc34)c2)c1`: 1080 nM and 6350 nM.
The matching figures for `CS(=O)(=O)c1cccc(Oc2cccc(-c3c(-n4cnnn4)cnc4c(C(F)(F)F)cccc34)c2)c1`: 5290 nM and 26600 nM.
The matching figures for `CS(=O)(=O)c1cccc(Oc2cccc(-c3c(CN)cnc4c(C(F)(F)F)cccc34)c2)c1`: 77 nM and 445 nM.
Take `CS(=O)(=O)c1cccc(Oc2cccc(-c3c(C(=N)N)cnc4c(C(F)(F)F)cccc34)c2)c1`: the half-maximal inhibitory concentration (IC50) in data set [2] is 5130 nM; in [3], 29800 nM.
The matching figures for `CS(=O)(=O)c1cc(F)cc(Oc2cccc(-c3c(C(N)=O)cnc4c(C(F)(F)F)cccc34)c2)c1`: 18 nM and 552 nM.
As a reminder, the EC50 is the concentration that produces a half-maximal response. The low end stands for higher potency in that assay, the high end for lower potency in that assay. Take `CS(=O)(=O)c1cccc(Oc2cccc(-c3c(C(N)=O)cnc4c(C(F)(F)F)cccc34)c2)c1`: the results for the 50% inhibitory concentration (IC50) in data set [2] and in [3] were 18 nM and 600 nM, respectively. Besides, the half-maximal effective concentration (EC50) was 110 nM in the data set with THP-1 [4], 370 nM in the data set with HepG2 [6], 1600 nM in data set [8] and 4500 nM in data set [9]. Also, the Efficacy in the data set on THP-1 [5] is on record as 104%; in the data set with HepG2 [7], 47%.
`CNC(=O)c1cnc2c(C(F)(F)F)cccc2c1-c1cccc(Oc2cccc(S(C)(=O)=O)c2)c1`: the figures for the half-maximal inhibitory concentration (IC50) in data set [2] and in [3] were 367 nM and more than 10000 nM, respectively.
One may read the Kp as the ratio of the level in a tissue or fluid to that in plasma or blood. As a reminder, the Cmax is the peak of the concentration-time curve. For the molecule `CS(=O)(=O)c1cccc(Oc2cccc(-c3c(C(N)=O)cnc4c(Cl)cccc34)c2)c1`, the AUC in the data set with Plasma [10] amounted to 457 ng/mL; in the data set on Plasma [14], 5417 ng/mL. Also, in [11], the concentration ratio (Kp) came out at 0.08. The results for the half-inhibitory concentration (IC50) in data set [2] and in data set [3] were 16 nM and 543 nM, respectively. The 50% effective concentration (EC50) with THP-1 [4] was 440 nM; in the data set on HepG2 [6], 1250 nM; in the data set with THP-1 [12] it was 10 nM; in data set [8], 630 nM; in data set [9] it was 3000 nM. Further, the figures for the Efficacy with THP-1 [5] and in the data set on HepG2 [7] were 107% and 68%, respectively. In the data set with THP-1 [1], this molecule registered an Activity of 71%. The values for the Cmax in [13] and in data set [15] were 1270 ng/mL and 107 ng/mL, respectively.
Consider `CC(C)S(=O)(=O)c1cccc(Oc2cccc(-c3c(C(N)=O)cnc4c(C(F)(F)F)cccc34)c2)c1`, for which the IC50 in [2] is 5 nM; in [3] it was 286 nM.
The matching figures for `CS(=O)(=O)c1cccc(Oc2cccc(-c3c(C(N)=O)cnc4c(F)cccc34)c2)c1`: 590 nM and 12700 nM.
Take `CS(=O)(=O)c1cccc(Oc2cccc(-c3c(C#N)cnc4c(C(F)(F)F)cccc34)c2)c1`: the IC50 came out at 2.2 nM in data set [2] and 13.4 nM in data set [3].
Regarding `CCNC(=O)c1cnc2c(C(F)(F)F)cccc2c1-c1cccc(Oc2cccc(S(C)(=O)=O)c2)c1`, the figures for the 50% inhibitory concentration (IC50) in [2] and in data set [3] were 730 nM and 6860 nM, respectively.
In the case of `CS(=O)(=O)c1cc(Cl)cc(Oc2cccc(-c3c(C(N)=O)cnc4c(C(F)(F)F)cccc34)c2)c1`, the half-maximal inhibitory concentration (IC50) in data set [2] is 62 nM; in data set [3], 1770 nM.
The matching figures for `Cc1cccc2c(-c3cccc(Oc4cccc(S(C)(=O)=O)c4)c3)c(C(N)=O)cnc12`: 28 nM and 756 nM.
Take `CCCS(=O)(=O)c1cccc(Oc2cccc(-c3c(C(N)=O)cnc4c(C(F)(F)F)cccc34)c2)c1`: the concentration for half-maximal inhibition (IC50) in data set [2] amounted to 57 nM; in data set [3], 1360 nM.
The matching figures for `CS(=O)(=O)c1cccc(Oc2cccc(-c3c(C(N)=O)cnc4ccccc34)c2)c1`: 2850 nM and more than 10000 nM.
For `Fc1ccc(-c2c3cccc(C(F)(F)F)c3nn2Cc2ccc(F)cc2Cl)cc1` [LXR-623], in data set [16], the partition ratio (Kp) came to 1.2. Besides, the Efficacy in the data set with THP-1 [5] was found to be 100%; with HepG2 [7] it was 38%. The molecule further gave an EC50 in the data set on HepG2 [6] of 1000 nM. For the same molecule, the peak concentration (Cmax) in data set [17] was 2850 ng/mL; in [19], 3530 ng/mL. Also, the figures for the AUC with Plasma [18] and in the data set on Plasma [20] were 13057 ng/mL and 15312 ng/mL, respectively.
